Reference: US9920061B2, “Imidazo[1,5-A]pyrimidinyl carboxamide compounds and their use in the treatment of medical disorders” (Lysosomal Therapeutics Inc., priority 2016, dated 2018)
Values after ≈ are worked out from the molar mass of the structure shown. Like-named read-outs stand apart in the source and are kept apart here.

What was measured:
[1] = Compound solubility in water; type: physicochemical
[2] = target: T1, glucocerebrosidase (Gcase) (Homo sapiens, UniProt P04062); assay: Glucocerebrosidase (Gcase) activation assay, 4-methylumbelliferyl-beta-D-glucopyranoside substrate, with saposin C; type: biochemical
T1 sequence (P04062 40-536): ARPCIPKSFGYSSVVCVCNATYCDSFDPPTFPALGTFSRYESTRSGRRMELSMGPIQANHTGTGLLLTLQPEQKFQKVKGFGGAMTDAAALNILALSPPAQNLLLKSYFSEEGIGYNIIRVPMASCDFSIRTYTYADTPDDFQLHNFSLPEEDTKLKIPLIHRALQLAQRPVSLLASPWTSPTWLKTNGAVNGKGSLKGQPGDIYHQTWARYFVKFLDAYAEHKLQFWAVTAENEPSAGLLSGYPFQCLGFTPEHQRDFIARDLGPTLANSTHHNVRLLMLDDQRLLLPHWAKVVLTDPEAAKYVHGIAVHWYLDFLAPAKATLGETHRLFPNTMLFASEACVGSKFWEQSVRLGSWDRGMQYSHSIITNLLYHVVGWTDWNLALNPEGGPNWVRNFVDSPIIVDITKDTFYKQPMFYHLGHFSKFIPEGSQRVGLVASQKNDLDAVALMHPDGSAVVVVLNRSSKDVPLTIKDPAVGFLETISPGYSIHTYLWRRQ
How it was run: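 Compounds tested at 1.0 and 0.1 μM, then in 8-point 3-fold curves, were pre-incubated 30 min at room temperature with 10 nM GCase plus 100 nM saposin C in PS/triton micelles, pH 4.7. Reaction with substrate (2 mM in micelles before mixing) ran 15 min; stopped at pH 12.5, read at ex 365/em 440 nm.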

[3] = 0.1 μM test compound, read-out: Percent Gcase Activation 0.1 μM Test Compound
[4] = 1 μM test compound, read-out: Percent Gcase Activation 1 μM Test Compound

In the case of `Cc1cc(-c2cccnc2)nc2c(C(=O)NC(c3ccc(F)cc3)C(F)(F)F)ncn12` (stereo not drawn) [III-48], the solubility [1] was 7.1 µg/mL (≈ 16.5 µM), the activation at 0.1 µM [2, 3] was > 20% and the activation at 1 µM [2, 4] was > 60%.

For `COc1cc(F)cc(-c2cc(C)n3cnc(C(=O)NC(C)(C)C)c3n2)c1` [III-126], the solubility [1] was 0.1 µg/mL (≈ 0.281 µM), the activation at 0.1 µM [2, 3] was > 20% and the activation at 1 µM [2, 4] was > 60%.

With `Cc1cc(-c2ccsc2C#N)nc2c(C(=O)NC(C3CC3)C(F)(F)F)ncn12` (stereo not drawn) [IV-88] the solubility ([1]; in water) was 0.3 µg/mL (≈ 0.74 µM), the activation at 0.1 µM ([2]; test compound at 0.1 μM, read-out: Percent Gcase Activation, 0.1 μM Test Compound) was > 20% and the activation at 1 µM ([2]; test compound at 1.0 μM, read-out: Percent Gcase Activation, 1 μM Test Compound) was > 60%.

With `Cc1cc(OC2CCC2)nc2c(C(=O)NC(C3CC3)C(F)(F)F)ncn12` (stereo not drawn) [III-176] the solubility [1] was 5.5 µg/mL (≈ 14.9 µM), the activation at 0.1 µM [2, 3] was > 20% and the activation at 1 µM [2, 4] was > 60%.

For `Cc1cc(-c2ccccn2)nc2c(C(=O)NC(c3ccc(F)cc3)C(F)(F)F)ncn12` (stereo not drawn) [III-49], the solubility [1] was 6.7 µg/mL (≈ 15.6 µM), the activation at 0.1 µM [2, 3] was > 20% and the activation at 1 µM [2, 4] was > 60%.

In the case of `Cc1cc(-c2ccccn2)nc2c(C(=O)N[C@H]3CC[C@H](OCC(C)C)CC3)ncn12` [III-96], the solubility [1] was 6.6 µg/mL (≈ 16.2 µM), the activation at 0.1 µM [2, 3] was < 10% and the activation at 1 µM [2, 4] was 30 to 60%.

In the case of `Cc1cc(-c2ccccn2)nc2c(C(=O)NC(C)(C)C3CC3)ncn12` [III-42], the solubility [1] was 4 µg/mL (≈ 11.9 µM), the activation at 0.1 µM [2, 3] was < 10% and the activation at 1 µM [2, 4] was > 60%.
